The numbers were not newly measured in US6797829B1, “Synthesis of a novel paramagnetic amino derivative (epm-5) for labelling chemical and biological macromolecules” (Conselho Nacional de Desenvolvimento Cientifico e …, priority 1999, dated 2004), which cites them from elsewhere.

Molecules are shown by their SMILES. Like-named read-outs stand apart in the source and are kept apart here.

As for `CC1(C)CC(N)(C(=O)O)CC(C)(C)N1[O]` [Toac, 2,2,6,6tetramethylpiperidine-1-oxyl-4-amine-4-carboxylic acid], the “pKa of the amine group” value (in free state) is listed as 8 and the “pKa of the amine group” value (when bound to the N-terminal portion of a peptide chain) is given as “about 5.5”.
